Assays:
[1] = test system: 356 CRISPRi constructs in E. coli ΔtolC-pore; test: CRISPRi collection fitness screen with sub-inhibitory compound; format: cell-based; details: for Growth, mean colony biomass (n=4): +250 ng/ml Vancomycin
From the text: To that end, we screened the E. coli CRISPRi collection in the ΔtolC-pore genetic background with a sub-inhibitory concentration of MAC-0452936 and measured the fitness of all 356 CRISPRi mutants (Figure 4C and Data S4). […] To that end, we introduced either an arabinose inducible copy of lgt supplied on the pCHAP9231 plasmid[48] or the pBAD19s plasmid as a control into E. coli ΔtolC-pore and tested the potency of MAC-0452936 (Figure 4E). […] To test this hypothesis, we constructed E. coli ΔlgtΔtolC-pore with pCHAP9231[48] so that lgt expression was driven solely by arabinose from the plasmid.
For screens of the CRISPRi collection with MAC-0452936, the mobile CRISPRi collection was first conjugated into E. coli ΔtolC-pore as previously described.[30] The CRISPRi collection was then arrayed on solid agar at 1536 density using the Singer-ROTOR, such that each CRISPRi strain is arrayed in technical quadruplicate. […] The screens were conducted without CRISPRi induction, using just the 5–10% basal knockdown from the pFD152 CRISPRi plasmid. Following overnight growth, plates were imaged using high-resolution scanners (Epson Perfection v750), and colony biomass for each mutant was determined.

[2] = test system: E. coli ΔtolC-pore harboring CRISPRi plasmids targeting lgt; test: CRISPRi lgt knockdown MIC (low-copy enhancement); format: cell-based; details: two gRNAs targeting lgt, 100 ng/mL aTc
From the text: We next turned to genetic approaches to confirm the mechanism of action of MAC-0452936. […] To that end, we screened the E. coli CRISPRi collection in the ΔtolC-pore genetic background with a sub-inhibitory concentration of MAC-0452936 and measured the fitness of all 356 CRISPRi mutants (Figure 4C and Data S4). […] Depletion of Lgt by CRISPRi provided supporting evidence that MAC-0452936 targeted Lgt in E. coli; however, we sought to confirm this observation using a parallel genetic approach. We hypothesized that MAC-0452936 potency would also be affected by high-copy expression of lgt. To that end, we introduced either an arabinose inducible copy of lgt supplied on the pCHAP9231 plasmid[48] or the pBAD19s plasmid as a control into E. coli ΔtolC-pore and tested the potency of MAC-0452936 (Figure 4E). Induction of lgt expression with arabinose suppressed the activity of MAC-0452936 by about 8-fold. […] To test this hypothesis, we constructed E. coli ΔlgtΔtolC-pore with pCHAP9231[48] so that lgt expression was driven solely by arabinose from the plasmid. […] To test this observation with MAC-0452936, we introduced an lpp deletion into our screening strain E. coli ΔtolC-pore and assessed the activity of our Lgt inhibitor in this mutant background. […]

## CN[C@H](CC(C)C)C(=O)N[C@H]1C(=O)N[C@@H](CC(N)=O)C(=O)N[C@H]2C(=O)N[C@H]3C(=O)N[C@H](C(=O)N[C@H](C(=O)O)c4cc(O)cc(O)c4-c4cc3ccc4O)[C@H](O)c3ccc(c(Cl)c3)Oc3cc2cc(c3O[C@@H]2O[C@H](CO)[C@@H](O)[C@H](O)[C@H]2O[C@H]2C[C@](C)(N)[C@H](O)[C@H](C)O2)Oc2ccc(cc2Cl)[C@H]1O [Vancomycin]
[1]; gRNA asnS
  Growth, mean colony biomass (n=4): 0.957
[1]; gRNA cdsA, 1μg/ml MAC0452936, 6ng/ml LolCDE-in-1, 250 ng/ml Vancomycin, 7 ng/ml CHIR090, n=4
  Growth represented as mean colony biomass: 1.2659
[1]; gRNA csrA
  Growth, mean colony biomass (n=4): 0.9477
[1]; gRNA dnaC
  Growth, mean colony biomass (n=4): 1.003
[1]; gRNA dut
  Growth, mean colony biomass (n=4): 1.0326
[1]; gRNA folA
  Growth, mean colony biomass (n=4): 1.027
[1]; gRNA folC
  Growth, mean colony biomass (n=4): 1.033
[1]; gRNA ftsA
  Growth, mean colony biomass (n=4): 0.9398
[1]; gRNA glmS
  Growth, mean colony biomass (n=4): 1.002
[1]; gRNA hemD
  Growth, mean colony biomass (n=4): 1.042
[1]; gRNA lexA
  Growth, mean colony biomass (n=4): 1.232
[1]; gRNA mnmA
  Growth, mean colony biomass (n=4): 1.044
[1]; gRNA msbA
  Growth, mean colony biomass (n=4): 1.015
[1]; gRNA mukF
  Growth, mean colony biomass (n=4): 1.002
[1]; gRNA nadK
  Growth, mean colony biomass (n=4): 0.9893
[1]; gRNA prmC
  Growth, mean colony biomass (n=4): 1.009
[1]; gRNA pssA
  Growth, mean colony biomass (n=4): 0.9581
[1]; gRNA ptsI
  Growth, mean colony biomass (n=4): 1.038
[1]; gRNA ribD
  Growth, mean colony biomass (n=4): 1.045
[1]; gRNA rne
  Growth, mean colony biomass (n=4): 1.0315
[1]; gRNA rplA
  Growth, mean colony biomass (n=4): 0.9936
[1]; gRNA rplX
  Growth, mean colony biomass (n=4): 1.03
[1]; gRNA rpmC
  Growth, mean colony biomass (n=4): 1.003
[1]; gRNA rpoE
  Growth, mean colony biomass (n=4): 1.036
[1]; gRNA rpsG
  Growth, mean colony biomass (n=4): 1.014
[1]; gRNA rpsK
  Growth, mean colony biomass (n=4): 0.9986
[1]; gRNA rpsR
  Growth, mean colony biomass (n=4): 0.9771
[1]; gRNA rpsT
  Growth, mean colony biomass (n=4): 1.039
[1]; gRNA suhB
  Growth, mean colony biomass (n=4): 0.9724
[1]; gRNA tsaE
  Growth, mean colony biomass (n=4): 0.9903
[1]; gRNA ygeN
  Growth, mean colony biomass (n=4): 0.9481
[1]; gRNA yqeL
  Growth, mean colony biomass (n=4): 1.455
[1]; gRNA zipA
  Growth, mean colony biomass (n=4): 1.731
[1]; sub-inhibitory (¼ MIC) concentration, LB agar, basal knockdown
  growth defect of the lgt CRISPRi mutant in the presence of compound: did not demonstrate a growth defect
[2]
  sensitization upon depletion of Lgt with CRISPRi constructs: not to either of the negative control antibiotics

From article PMC11456916, “A screen for cell envelope stress uncovers an inhibitor of prolipoprotein diacylglyceryl transferase, Lgt, in Escherichiacoli” (iScience, 2024)
